One assay addresses protein phosphatase 2A. The settings on record: protein phosphatase 2A inhibitor; cited from earlier work.
The next assay deals with PTP. Particulars: PTP inhibitor; cited from earlier work.
Assay [1] deals with C. elegans strain DR1564: daf-2(m41).
Description: All screening was done at 20 μM compound concentration in quadruplicates, except 2000 compounds of Diverset in triplicates. Confirmation was done at 4 concentrations. Questionable dose responses were repeated, if necessary at lower concentrations and/or 2 fold dilution steps. All worms that bypassed dauer stage, L4s and adults, were counted under a Leica MZ12 dissection scope and together referred to as number of adults per well. […] Data were transferred to Excel files and average and variance of the 8 controls of each plate calculated and plotted.
The number of wells was plotted against the number of adults per well and a negative binomial distribution fitted by maximum likelihood. […]
Then the number of adults per well where the cumulative negative binomial distribution was closest to 99% was determined and referred to as 1% cut-off. […]
The plates were then screened through quickly to find wells with a high number adults, which were counted and if found to reach the cut-off value the position on the lid was circled and the exact value written in the circle. […] Finally the transparent lids of the 4 replicate plates were stacked on top of each other and by looking through them it was determined whether 2 or more lids were circled in any position. […]

For `CC1(C(=O)O)C2CCC(O2)C1(C)C(=O)O` (stereo not drawn) [Cantharidic acid], the IC50 (in general, the midpoint of a concentration-inhibition curve) on protein phosphatase 2A is 0.053 µM.
For `CN(N=O)c1cc(O)ccc1O` [Dephostatin], the half-maximal inhibitory concentration (IC50) in the assay with PTP is 7.7 µM.
As to `COC[C@H]1OC(=O)c2coc3c2[C@@]1(C)C1=C(C3=O)[C@@H]2CCC(=O)[C@@]2(C)C[C@H]1OC(C)=O` [Wortmannin], in assay [1], the “active in the assay” value is given as “active”.
